What is called IC50 is the concentration at which inhibition is half-maximal. A high value points to a need for much substance.

In one data set the target is T1, full-length NS3/4A (Hepatitis C virus genotype 1b, UniProt Q9WMX2).
T1 construct: wild-type HCV NS3 (HCV polyprotein residues 1027–1657); His-tag (N); made in house
The experiment in a line: SPR binding assay (dissociation equilibrium constant KD). To be noted: double referenced with blank and unrelated reference protein. As for the experimental part: The full-length NS3/4A enzyme was prepared in a storage buffer (50 mM HEPES, pH 7.6, 500 mM NaCl, 1 mM DTT, 0.2% Triton X-100, and 20% glycerol) and immobilized on a CM5 sensor chip using standard amine-coupling at 25°C with running buffer HBS-P (10 mM HEPES, 150 mM NaCl, 0.05% surfactant P-20, pH 7.4) using a Biacore T100 instrument. Flow channels 1 and 3 were activated by 1-ethyl-3-(3-dimethylaminopropyl) carbodiimide hydrocholoride (EDC)/N-hydroxy succinimide (NHS) mixture, and the activated surface was blocked by ethanolamine (pH 8.5) as controls. The NS3/4A enzyme was diluted in 10 mM sodium acetate (pH 5.0), and immobilized to flow channel 4 after sensor surface activation with EDC/NHS with a 7 min injection followed by ethanolamine blocking on unoccupied surface area. NS3/4A immobilization level was ∼8,500 response units (RU). An unrelated reference protein (92 kDa) was also immobilized to flow channel 2 as another control to be compared with NS3/4A (74.6 kDa). Fifteen initial hit compounds were prepared as 10 mM DMSO stock solutions. Compound solutions with a series of increasing concentrations (0–200 µM at 1.5-fold dilution) were applied to all four channels at a 10 µL/min flow rate at 25°C. Sensorgrams were analyzed using Biaevaluation software 2.0.3, and response unit difference (ΔRU) values at each concentration were measured during the equilibration phase. Data were either single referenced with a blank (enthanolamine) or double referenced with both blank and reference protein RU values. SigmaPlot 11.0 was used to fit the data to a single rectangular hyperbolic curve to determine KD values. The hyperbola function, y = ymax·x/(KD+x), was used to plot response units and corresponding concentration, where y is the response, ymax is the maximum response, and x is the compound concentration.

For a further data set, the target named is T2, Trypsin (Homo sapiens, UniProt P07477).
T2 construct: purchased Sigma
Kind of data set: Inhibitor selectivity assay, trypsin (fluorometric). The class given is biochemical. As for the experimental part: To test for selectivity, two human serine proteases, Trypsin and Chymotrypsin (Sigma), were tested with the top two hit compounds from HTS using a fluorometric assay. The fluorogenic substrates used in this study were N-benzoyl-L-Arg-7-amido-4-methylcoumarin (Sigma) and N-succinyl-Ala-Ala-Phe-7-amido-4- methylcoumarin (Sigma) for trypsin and chymotrypsin, respectively. All assays were performed in 384-well black plates (Corning) in a total volume of 24 µL of PBS (pH 7.4) buffer containing 0.01% Triton, 0.1 mg/mL BSA, and 2 mM GSH in triplicate. A series of compound concentrations (0 to 200 µM final concentration at 2-fold serial dilution) in 100% DMSO was prepared in a 384-well plate. 20 µL of trypsin (0.01 mg/mL) and chymotrypsin (0.0001 mg/mL) solutions were distributed into wells, and 0.5 µL of varying concentration of compounds were added and incubated for 10 minutes. The enzyme reaction was initiated by adding 5 µL of the substrate (50 µM final concentration), and fluorescence intensity was continuously monitored at excitation/emission wavelengths of 350 nm/460 nm for 10 minutes.

A short description of data set [1]: Microsomal stability assay. The class given is in vitro ADME, mouse. Here is the method: A typical incubation mixture (100 µL total volume) for the metabolic stability studies contained 1 µM (final concentration) test compounds, 0.5 mg/mL microsomal protein (pooled Balb/c mouse liver microsomes prepared as described previously), 100 mM Tris-HCl buffer (pH7.4), and NADPH-generating system (5 mM isocitric acid, 0.2 unit/mL isocitric acid dehydrogenase, 5 mM magnesium chloride, 1 mM NADP^+). After pre-incubation at 37°C for 5 minutes, the reactions were started by addition of NADP^+ and further incubated for another 0, 5, 10, and 20 minutes. For control experiments, NADPH and/or liver microsomes were omitted from these incubations. The reactions were terminated by adding 100 µL ice-cold acetonitrile containing phenytoin (1 µM) as an internal standard and kept on ice for 30 minutes, followed by centrifugation at 16,100 g for 15 minutes to obtain the supernatant. Aliquots (5 µL) were then analyzed for substrate disappearance using liquid chromatography-tandem mass spectrometry (Agilent 1200 HPLC interfaced with Applied Biosystems Qtrap 3200) equipped with an electrospray ion source. Chromatographic separation was carried out with a Waters XTerra MS C18 column (2.1×50 mm, 3.5 µm; Agilent Technologies, Santa Clara, CA). The mobile phases consisted of solvent A (0.1% (v/v) aqueous formic acid) and solvent B (acetonitrile). A 250 µL/min flow rate gradient was developed for each test compound over 10 minutes (Table S2 in File S1). Mass detection of test substrates and internal standard were followed in a positive ion mode by examining multiple reaction monitoring (MRM) pairs. The spraying needle voltage was set at 5000 V. Curtain gas was set at 20; gas 1 and gas 2 were set at 45 and 50, respectively; collision assisted dissociation gas was at medium; and the source heater probe temperature was at 500°C. The test compounds were quantified by comparing the ratio of ion currents obtained for the substrates and an internal standards calibration curve. Data acquisition and processing were accomplished using Analyst software (version 1.4.1; Applied Biosystems). Apparent half-lives (t1/2) for the disappearance of parent drugs were calculated from the pseudo-first-order rate constants (ke) obtained by linear regression of plots of log [drug remaining] versus time (GraphPad Prism 5 software, La Jolla, CA) using the equation: t1/2 = 0.693/ke.

T1 sequence (Q9WMX2 1658-1711): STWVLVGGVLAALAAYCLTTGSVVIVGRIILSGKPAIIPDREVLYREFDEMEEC
T1 sequence (Q9WMX2 1027-1657): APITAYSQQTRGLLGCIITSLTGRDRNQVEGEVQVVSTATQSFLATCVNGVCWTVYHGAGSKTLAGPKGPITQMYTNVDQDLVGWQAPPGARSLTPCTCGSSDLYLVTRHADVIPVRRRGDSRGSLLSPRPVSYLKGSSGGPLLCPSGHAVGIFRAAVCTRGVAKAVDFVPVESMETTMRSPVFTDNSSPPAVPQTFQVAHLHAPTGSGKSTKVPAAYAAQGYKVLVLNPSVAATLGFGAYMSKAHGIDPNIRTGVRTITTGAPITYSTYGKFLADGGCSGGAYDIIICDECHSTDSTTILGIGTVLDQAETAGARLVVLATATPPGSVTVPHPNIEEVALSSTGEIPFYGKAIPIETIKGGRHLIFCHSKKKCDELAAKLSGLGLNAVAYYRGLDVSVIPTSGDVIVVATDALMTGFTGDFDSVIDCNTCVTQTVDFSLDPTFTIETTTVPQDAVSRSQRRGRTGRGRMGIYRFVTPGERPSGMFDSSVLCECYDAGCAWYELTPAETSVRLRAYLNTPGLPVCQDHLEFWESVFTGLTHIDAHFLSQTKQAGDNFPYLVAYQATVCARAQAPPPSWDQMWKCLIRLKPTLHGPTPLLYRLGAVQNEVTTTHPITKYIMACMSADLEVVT

For the molecule `Cc1cc(NC(=O)Cc2csc(NS(=O)(=O)c3ccccc3)n2)ccc1Br` [Compound 12], the “SPR binding to NS3/4A, double referenced” value at full-length NS3/4A is “specific binding”. The inhibition at 100 µM on Trypsin (100 µM compound, read-out: Trypsin % Inh at 100 µM) was 28%. For the same molecule, the IC50 against Trypsin (human trypsin) is more than 100 µM. For the same molecule, in data set [1] (Balb/c, pH 7.4, mouse liver microsomes 0.5 mg/mL, 1 µM compound, NADPH-generating system, read-out: Microsomal stability t1/2), the half-life at 1 µM was determined as 21.7 min. Moreover, the microsomal stability in data set [1] (mouse liver microsomes, rounded values) was found to be 22 min.

Source of the values: publication PMC3793977, “High-Throughput Screening (HTS) and Hit Validation to Identify Small Molecule Inhibitors with Activity against NS3/4A proteases from Multiple Hepatitis C Virus Genotypes” (PLoS ONE, 2013).
